From patent publication US9656962B2, “Ring-contracted morphinans and the use thereof” (Purdue Pharma L.P., priority 2013, dated 2017)

Molecular target: μ-opioid receptor (Homo sapiens (Human), UniProt P35372)
Assay: μ-opioid receptor [35S]GTPγS functional assay, HEK-293 cells (Table 6)
Format: biochemical
Details: for Emax: relative to DAMGO; for EC50: μ GTP
Method: μ-Opioid Receptor Functional Assay Procedures: [^35S]GTPγS functional assays were conducted using freshly thawed μ-receptor membranes prepared in-house from a cell line expressing recombinant μ opioid receptor in a HEK-293, CHO or U-2 OS cell background, or purchased from a commercial source (Perkin Elmer, Shelton, Conn.; or DiscovRx, Fremont, Calif.). Assay reactions were prepared by sequentially adding the following reagents to binding buffer (100 mM NaCl, 10 mM MgCl2, 20 mM HEPES, pH 7.4) on ice (final concentrations indicated): membrane protein (0.026 mg/mL), saponin ([…]), GDP ([…]) and [^35S]GTPγS (0.20 nM; Perkin Elmer, Shelton, Conn.). The prepared membrane solution (190 μl/well) was transferred to 96-shallow well polypropylene plates containing 10 μl of 20× concentrated stock solutions of the agonist [D-Ala^2, N-methyl-Phe^4 Gly-ol^5]-enkephalin (DAMGO) prepared in dimethyl sulfoxide (DMSO). Plates were incubated for 30 min at about 25° C. with shaking Reactions were terminated by rapid filtration onto 96-well Unifilter GF/B filter plates (Perkin Elmer, Shelton, Conn.) using a 96-well tissue harvester (Perkin Elmer, Shelton, Conn.) followed by three filtration washes with 200 μl of ice-cold wash buffer (10 mM NaH2PO4, 10 mM Na2HPO4, pH 7.4). Filter plates were subsequently dried at 50° C. for 2-3 hours. BetaScint scintillation cocktail (Perkin Elmer, Shelton, Conn.) was added (50 μl/well) and plates were counted using a Packard Top-Count for 1 min/well. Data were analyzed using the sigmoidal dose-response curve fitting functions in GraphPad PRISM v. 3.0, or an in-house function for non-linear, sigmoidal dose-response curve-fitting. [^35S]GTPγS functional assays can also be conducted using freshly thawed μ-receptor membranes prepared from a cell line expressing recombinant μ opioid receptor in a CHO-K1 cell background.
μ GTP Emax (%) is the maximal effect elicited by a compound relative to the effect elicited by DAMGO, a standard μ agonist. Generally, the μ GTP Emax (%) value measures the efficacy of a compound to treat or prevent pain or other Conditions.
The following TABLE 6 provides results on the activity response of certain Compounds of the Invention at the μ- and κ-opioid receptors determined as described above using HEK-293 cells.

| SMILES | Emax [%] | EC50 (bound given in μM) [µM] | EC50 [µM] |
| --- | --- | --- | --- |
| Cc1ccc(CNC(=O)[C@@H]2C[C@]34CCN(CC5CC5)[C@H](Cc5ccc(C(N)=O)cc53)[C@]4(O)C2)cc1 [Compound 117, (2R,3aS,4R,9bS)-12-(cyclopropylmethyl)-3a-hydroxy-N^2-(4-methylbenzyl)-1,2,3,3a,4,5-hexahydro-4,9b-(epimino-ethano)cyclopenta[a]naphthalene-2,8-dicarboxamide] | -1.21 ± 0.21 | > 20 |  |
| NC(=O)c1ccc2c(c1)[C@]13CCN(CC4CC4)[C@H](C2)[C@]1(O)C[C@H](C(=O)NCCN1CCOCC1)C3 [Compound 118, (2R,3aS,4R,9bS)-12-(cyclopropylmethyl)-3a-hydroxy-N^2-(2-morpholinoethyl)-1,2,3,3a,4,5-hexahydro-4,9b-(epimino-ethano)cyclopenta[a]naphthalene-2,8-dicarboxamide] | 13.2 ± 1.17 |  | 0.175 ± 0.0099 |
| NC(=O)c1ccc2c(c1)[C@]13CCN(CC4CC4)[C@H](C2)[C@]1(O)C[C@@H](C(=O)NCCN1CCOCC1)C3 [Compound 119, (2S,3aS,4R,9bS)-12-(cyclopropylmethyl)-3a-hydroxy-N^2-(2-morpholinoethyl)-1,2,3,3a,4,5-hexahydro-4,9b-(epimino-ethano)cyclopenta[a]naphthalene-2,8-dicarboxamide] | 18.4 ± 1.55 |  | 0.0134 ± 0.00419 |
| Cc1ccc(CNC(=O)[C@@H]2C[C@]34CCN(CC5CC5)[C@H](Cc5ccc(C#N)cc53)[C@]4(O)C2)cc1 [Compound 120, (2R,3aS,4R,9bS)-8-cyano-12-(cyclopropylmethyl)-3a-hydroxy-N-(4-methylbenzyl)-1,2,3,3a,4,5-hexahydro-4,9b-(epiminoethano)cyclopenta-[a]naphthalene-2-carboxamide] | 22.7 ± 1.92 |  | 0.631 ± 0.152 |
| Cc1ccc(CNC(=O)[C@H]2C[C@]34CCN(CC5CC5)[C@H](Cc5ccc(C#N)cc53)[C@]4(O)C2)cc1 [Compound 121, (2S,3aS,4R,9bS)-8-cyano-12-(cyclopropylmethyl)-3a-hydroxy-N-(4-methylbenzyl)-1,2,3,3a,4,5-hexahydro-4,9b-(epiminoethano)cyclopenta-[a]naphthalene-2-carboxamide] | 29.3 ± 1.78 |  | 1.09 ± 0.0702 |
| N#Cc1ccc2c(c1)[C@]13CCN(CC4CC4)[C@H](C2)[C@]1(O)C[C@H](C(=O)NCCN1CCOCC1)C3 [Compound 122, (2R,3aS,4R,9bS)-8-cyano-12-(cyclopropylmethyl)-3a-hydroxy-N-(2-morpholinoethyl)-1,2,3,3a,4,5-hexahydro-4,9b-(epiminoethano)cyclopenta-[a]naphthalene-2-carboxamide] | 0.33 ± 0.67 | > 20 |  |
| N#Cc1ccc2c(c1)[C@]13CCN(CC4CC4)[C@H](C2)[C@]1(O)C[C@@H](C(=O)NCCN1CCOCC1)C3 [Compound 123, (2S,3aS,4R,9bS)-8-cyano-12-(cyclopropylmethyl)-3a-hydroxy-N-(2-morpholinoethyl)-1,2,3,3a,4,5-hexahydro-4,9b-(epiminoethano)cyclopenta-[a]naphthalene-2-carboxamide] | 10.5 ± 1.07 |  | 2.92 ± 0.378 |
| O=C(NCc1cccc(O)c1O)[C@@H]1C[C@]23CCN(CC4CC4)[C@H](Cc4ccc(O)cc42)[C@]3(O)C1 [Compound 124, (2R,3aS,4R,9bS)-12-(cyclopropylmethyl)-N-(2,3-dihydroxybenzyl)-3a,8-dihydroxy-1,2,3,3a,4,5-hexahydro-4,9b-(epimino-ethano)cyclopenta[a]naphthalene-2-carboxamide] | 1.93 ± 2.93 | > 20 |  |
| Cc1c(Cl)cccc1CNC(=O)[C@@H]1C[C@]23CCN(CC4CC4)[C@H](Cc4ccc(O)cc42)[C@]3(O)C1 [Compound 125, (2R,3aS,4R,9bS)-N-(3-chloro-2-methylbenzyl)-12-(cyclopropylmethyl)-3a,8-dihydroxy-1,2,3,3a,4,5-hexahydro-4,9b-(epiminoethano)cyclopenta-[a]naphthalene-2-carboxamide] | -1 | > 20 |  |
| Cc1ccc(CNC(=O)[C@@H]2C[C@]34CCN(CC5CC5)[C@H](Cc5ccc(O)cc53)[C@]4(O)C2)cc1Cl [Compound 126, (2R,3aS,4R,9bS)-N-(3-chloro-4-methylbenzyl)-12-(cyclopropylmethyl)-3a,8-dihydroxy-1,2,3,3a,4,5-hexahydro-4,9b-(epiminoethano)cyclopenta-[a]naphthalene-2-carboxamide] | -1 | > 20 |  |
| O=C(NCc1ccc(O)cc1Cl)[C@@H]1C[C@]23CCN(CC4CC4)[C@H](Cc4ccc(O)cc42)[C@]3(O)C1 [Compound 127, (2R,3aS,4R,9bS)-N-(2-chloro-4-hydroxybenzyl)-12-(cyclopropylmethyl)-3a,8-dihydroxy-1,2,3,3a,4,5-hexahydro-4,9b-(epiminoethano)cyclopenta-[a]naphthalene-2-carboxamide] | -1 | > 20 |  |
| O=C(NCc1ccc(O)c(Cl)c1)[C@@H]1C[C@]23CCN(CC4CC4)[C@H](Cc4ccc(O)cc42)[C@]3(O)C1 [Compound 128, (2R,3aS,4R,9bS)-N-(3-chloro-4-hydroxybenzyl)-12-(cyclopropylmethyl)-3a,8-dihydroxy-1,2,3,3a,4,5-hexahydro-4,9b-(epiminoethano)cyclopenta-[a]naphthalene-2-carboxamide] | -1 | > 20 |  |
| O=C(NCCc1ccc(Cl)cc1)[C@@H]1C[C@]23CCN(CC4CC4)[C@H](Cc4ccc(O)cc42)[C@]3(O)C1 [Compound 129, (2R,3aS,4R,9bS)-N-(4-chlorophenethyl)-12-(cyclopropylmethyl)-3a,8-dihydroxy-1,2,3,3a,4,5-hexahydro-4,9b-(epimino-ethano)cyclopenta[a]naphthalene-2-carboxamide] | 1 | > 20 |  |
| O=C(NCCc1ccc(Cl)cc1Cl)[C@@H]1C[C@]23CCN(CC4CC4)[C@H](Cc4ccc(O)cc42)[C@]3(O)C1 [Compound 130, (2R,3aS,4R,9bS)-12-(cyclopropylmethyl)-N-(2,4-dichlorophenethyl)-3a,8-dihydroxy-1,2,3,3a,4,5-hexahydro-4,9b-(epiminoethano)cyclopenta[a]naphthalene-2-carboxamide] | 0 | > 20 |  |
| O=C(NCCc1ccc(Cl)c(Cl)c1)[C@@H]1C[C@]23CCN(CC4CC4)[C@H](Cc4ccc(O)cc42)[C@]3(O)C1 [Compound 131, (2R,3aS,4R,9bS)-12-(cyclopropylmethyl)-N-(3,4-dichlorophenethyl)-3a,8-dihydroxy-1,2,3,3a,4,5-hexahydro-4,9b-(epiminoethano)cyclopenta[a]naphthalene-2-carboxamide] | 1 | > 20 |  |
| CC(C)N1CCN(C(=O)[C@@H]2C[C@]34CCN(CC5CC5)[C@H](Cc5ccc(O)cc53)[C@]4(O)C2)CC1 [Compound 132, ((2R,3aS,4R,9bS)-12-(cyclopropylmethyl)-3a,8-dihydroxy-1,2,3,3a,4,5-hexahydro-4,9b-(epiminoethano)cyclopenta-[a]naphthalen-2-yl)(4-isopropylpiperazin-1-yl)methanone] | -1 | > 20 |  |
| O=C(NCCN1CCCCC1)[C@H]1C[C@]23CCN(CC4CC4)[C@H](Cc4ccc(O)cc42)[C@]3(O)C1 [Compound 133, (2S,3aS,4R,9bS)-12-(cyclopropylmethyl)-3a,8-dihydroxy-N-(2-(piperidin-1-yl)ethyl)-1,2,3,3a,4,5-hexahydro-4,9b-(epiminoethano)cyclopenta[a]naphthalene-2-carboxamide] | 29.8 ± 1.22 |  | 0.0142 ± 0.00373 |
| C[C@@H]1CN(CCNC(=O)[C@@H]2C[C@]34CCN(CC5CC5)[C@H](Cc5ccc(O)cc53)[C@]4(O)C2)C[C@H](C)O1 [Compound 134, (2R,3aS,4R,9bS)-12-(cyclopropylmethyl)-N-(2-((2S,6R)-2,6-dimethylmorpholino)-ethyl)-3a,8-dihydroxy-1,2,3,3a,4,5-hexahydro-4,9b-(epiminoethano)-cyclopenta[a]naphthalene-2-carboxamide] | 9.53 ± 0.9 |  | 0.092 ± 0.0197 |
| C[C@@H]1CN(CCNC(=O)[C@H]2C[C@]34CCN(CC5CC5)[C@H](Cc5ccc(O)cc53)[C@]4(O)C2)C[C@H](C)O1 [Compound 135, (2S,3aS,4R,9bS)-12-(cyclopropylmethyl)-N-(2-((2S,6R)-2,6-dimethylmorpholino)-ethyl)-3a,8-dihydroxy-1,2,3,3a,4,5-hexahydro-4,9b-(epiminoethano)cyclo-penta[a]naphthalene-2-carboxamide] | 19.7 ± 0.89 |  | 0.0103 ± 0.00103 |
